# What was measured:
# Format in all cases: in vivo
# [1] = tested on: barnyardgrass (Echinochloa crus-galli L.): ECHCG; assay: Test Example 1 pre-emergence herbicidal activity, ECHCG; conditions: visually observed 20th to 23rd day after application
# Outline: (§1)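 Pots of upland soil were sown, and one day later WP or EC formulations at set active-ingredient rates were sprayed pre-emergence in 500 L/ha water. Growth control scored visually 20–23 days after application, 0 (as untreated) to 100 (complete kill).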
# [2] = tested on: crabgrass (Digitaria sanguinalis L.): DIGSA; assay: Test Example 1 pre-emergence herbicidal activity, DIGSA; conditions: visually observed 20th to 23rd day after application
# Outline: as §1
# [3] = tested on: green foxtail (Setaria viridis L.): SETVI; assay: Test Example 1 pre-emergence herbicidal activity, SETVI; conditions: visually observed 20th to 23rd day after application
# Outline: as §1
# [4] = tested on: redroot pigweed (Amaranthus retroflexus L.): AMARE; assay: Test Example 1 pre-emergence herbicidal activity, AMARE; conditions: visually observed 20th to 23rd day after application
# Outline: as §1
# [5] = tested on: prickly sida (Sida spinosa L.): SEDSP; assay: Test Example 1 pre-emergence herbicidal activity, SIDSP; conditions: visually observed 20th to 23rd day after application
# Outline: as §1
# [6] = tested on: velvetleaf (Abutilon theophrasti): ABUTH; assay: Test Example 1 pre-emergence herbicidal activity, ABUTH; conditions: visually observed 20th to 23rd day after application
# Outline: as §1
# [7] = tested on: rice (Oryza sativa L.): ORYSA; assay: Test Example 1 pre-emergence herbicidal activity, ORYSA; conditions: visually observed 20th to 23rd day after application
# Outline: as §1
# [8] = tested on: wheat (Triticum aestivum L.): TRZAX; assay: Test Example 1 pre-emergence herbicidal activity, TRZAX; conditions: visually observed 20th to 23rd day after application
# Outline: as §1
# [9] = tested on: corn (Zea mays L.): ZEAMX; assay: Test Example 1 pre-emergence herbicidal activity, ZEAMX; conditions: visually observed 20th to 23rd day after application
# Outline: as §1
# [10] = tested on: soybean (Glycine max Merr.): GLXMA; assay: Test Example 1 pre-emergence herbicidal activity, GLXMA; conditions: visually observed 20th to 23rd day after application
# Outline: as §1
# [11] = tested on: barnyardgrass (Echinochloa crus-galli L.), ECHCG; assay: Test Example 2 post-emergence (foliage treatment) herbicidal activity, ECHCG; conditions: 63 g a.i./ha
# Outline: (§2)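 Plants grown in upland soil pots were sprayed on foliage at set leaf stages (ECHCG 1.1-2.1, DIGSA 1.0-2.0, AMARE 0.1-1.5, ORYSA 1.0-2). Formulated compound was applied at predetermined active-ingredient amounts in 500 L/ha water with 0.1% (v/v) spreader. Growth control (0–100%) was visually scored 20–23 days later.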
# [12] = tested on: crabgrass (Digitaria sanguinalis L.), DIGSA; assay: Test Example 2 post-emergence (foliage treatment) herbicidal activity, DIGSA; conditions: 63 g a.i./ha
# Outline: as §2
# [13] = tested on: green foxtail (Setaria viridis L.), SETVI; assay: Test Example 2 post-emergence (foliage treatment) herbicidal activity, SETVI; conditions: 63 g a.i./ha
# Outline: (§3)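 Each species was evaluated for growth suppression by eye, 0% matching untreated and 100% meaning death, some 20 to 23 days after a single post-emergence foliar treatment applied in 500 L/ha of water carrying 0.1% (v/v) agricultural spreader.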
# [14] = tested on: prickly sida (Sida spinosa L.), SIDSP; assay: Test Example 2 post-emergence (foliage treatment) herbicidal activity, SIDSP; conditions: 63 g a.i./ha
# Outline: as §3
# [15] = tested on: velvetleaf (Abutilon theophrasti), ABUTH; assay: Test Example 2 post-emergence (foliage treatment) herbicidal activity, ABUTH; conditions: 63 g a.i./ha
# Outline: as §3
# [16] = tested on: rice (Oryza sativa L.), ORYSA; assay: Test Example 2 post-emergence (foliage treatment) herbicidal activity, ORYSA; conditions: 63 g a.i./ha
# Outline: as §2
# [17] = tested on: wheat (Triticum aestivum L.), TRZAX; assay: Test Example 2 post-emergence (foliage treatment) herbicidal activity, TRZAX; conditions: 63 g a.i./ha
# Outline: as §3
# [18] = tested on: corn (Zea mays L.), ZEAMX; assay: Test Example 2 post-emergence (foliage treatment) herbicidal activity, ZEAMX; conditions: 63 g a.i./ha
# Outline: as §3
# [19] = tested on: soybean (Glycine max Merr.), GLXMA; assay: Test Example 2 post-emergence (foliage treatment) herbicidal activity, GLXMA; conditions: 63 g a.i./ha
# Outline: as §3
# [20] = tested on: barnyardgrass (Echinochiloa oryzicola: ECHOR); assay: Test Example 3 water application herbicidal activity (paddy), ECHOR; conditions: 63 g a.i./ha, water application under submerged condition at 0.5 leaf stage, visually observed 14th day after application; 0 = untreated control, 100 = complete kill
# Description: (§4) Paddy field soil was put into a 1/1,000,000 ha pot and seeds of barnyardgrass (Echinochiloa oryzicola: ECHOR) and japanese bulrush (Scirpus juncoides: SCPJO) were sown and slightly covered with soil. Then the pot was left to stand still in a greenhouse in a state where the depth of flooding water was from 0.5 to 1 cm, and one day later, tubers of japanese ribbon wapato (Sagittaria pygmaea: SA GPY) were planted. Thereafter, the depth of flooding water was maintained at a level of from 3 to 4 cm, and when barnyardgrass and japanese bulrush reached a 0.5 leaf stage, an aqueous diluted solution of a wettable powder or emulsifiable concentrate having the compound of the present invention formulated in accordance with a usual formulation method, was uniformly applied under submerged condition by a pipette so that the dose of the active ingredient would be at a predetermined level. On the other hand, paddy filed soil was put into a 1/1,000,000 ha pot and puddled and leveled, and the depth of flooding water was from 3 to 4 cm. One day later, rice (Oryza sativa L.: ORYSA) of 2 leaf stage was transplanted in a depth of 3 cm. On the 4th day after the transplantation, the compound of the present invention was applied in the same manner as described above. On the 14th day after the application of the herbicide, the growth of barnyardgrass, japanese burlush and japanese ribbon wapato was visually observed and on the 21st day after the application of the herbicide, the growth of rice was visually observed, and the herbicidal effects were evaluated by growth controlling degrees (%) ranging from 0 (equivalent to the untreated control) to 100 (complete kill), whereby the results shown in Table 6, were obtained. Compound Nos. in Table 6 correspond to Compound Nos. in Table 1 and 2 given hereinbefore.
# [21] = tested on: japanese bulrush (Scirpus juncoides: SCPJO); assay: Test Example 3 water application herbicidal activity (paddy), SCPJO; conditions: 63 g a.i./ha, water application under submerged condition at 0.5 leaf stage, visually observed 14th day after application; 0 = untreated control, 100 = complete kill
# Description: as §4
# [22] = tested on: japanese ribbon wapato (Sagittaria pygmaea: SA GPY); assay: Test Example 3 water application herbicidal activity (paddy), SAGPY; conditions: 63 g a.i./ha, water application under submerged condition, tubers planted, visually observed 14th day after application; 0 = untreated control, 100 = complete kill
# Description: as §4
# [23] = tested on: rice (Oryza sativa L.: ORYSA); assay: Test Example 3 water application herbicidal activity (paddy), transplanted rice ORYSA; conditions: 63 g a.i./ha, water application 4th day after transplantation of 2 leaf stage rice, visually observed 21st day after application; 0 = untreated control, 100 = complete kill
# Description: as §4
# [24] = tested on: redroot pigweed (Amaranthus retroflexus L.), AMARE; assay: Test Example 2 post-emergence (foliage treatment) herbicidal activity, AMARE; conditions: 63 g a.i./ha
# Outline: as §2
Structure (SMILES),Pre-emergence Herbicidal Activity ECHCG (growth controlling degree) ([1]; Rate 63 g a.i./ha) [%],Pre-emergence Herbicidal Activity DIGSP (growth controlling degree) ([2]; Rate 63 g a.i./ha) [%],Pre-emergence Herbicidal Activity SETVI (growth controlling degree) ([3]; Rate 63 g a.i./ha) [%],Pre-emergence Herbicidal Activity AMARE (growth controlling degree) ([4]; Rate 63 g a.i./ha) [%],Pre-emergence Herbicidal Activity SIDSP (growth controlling degree) ([5]; Rate 63 g a.i./ha) [%],Pre-emergence Herbicidal Activity ABUTH (growth controlling degree) ([6]; Rate 63 g a.i./ha) [%],Pre-emergence Herbicidal Activity ORYSA (growth controlling degree) ([7]; Rate 63 g a.i./ha) [%],Pre-emergence Herbicidal Activity TRZAX (growth controlling degree) ([8]; Rate 63 g a.i./ha) [%],"growth controlling degree, ECHCO [11] [%]","growth controlling degree, DIGSP [12] [%]","growth controlling degree, SETVI [13] [%]","growth controlling degree, SIDSP [14] [%]","growth controlling degree, ABUTH [15] [%]","growth controlling degree, ORYSA [16] [%]","growth controlling degree, TRZAX [17] [%]","growth controlling degree, ZEAMX [18] [%]","growth controlling degree, GLXMA [19] [%]",growth controlling degrees (%) ECHOR [20] [%],growth controlling degrees (%) SCPJO [21] [%],growth controlling degrees (%) ORYSA [23] [%],other results
COCC(=O)Nc1c(OC)c(Cl)cc(F)c1-c1nn(C)c(OC(F)F)c1Cl [Compound 1-16],100,100,100,100,100,100,40,10,80,80,100,100,100,80,50,70,95,100,98,70,Pre-emergence Herbicidal Activity ZEAMX (growth controlling degree) ([9]; Rate 63 g a.i./ha): 40%; Pre-emergence Herbicidal Activity GLXMA (growth controlling degree) ([10]; Rate 63 g a.i./ha): 10%; growth controlling degrees (%) SAGPY [22]: 100%
Cn1nc(-c2c(F)cc(Cl)c(OC(F)F)c2N(C=O)Cc2ccccc2)c(Cl)c1OC(F)F [Compound 1-86],,,,,,,,,0,30,10,60,0,0,0,0,40,60,50,10,"Pre-emergence Herbicidal Activity ECHCG (growth controlling degree) ([1]; Rate 125 g a.i./ha): 0%; Pre-emergence Herbicidal Activity DIGSP (growth controlling degree) ([2]; Rate 125 g a.i./ha): 0%; Pre-emergence Herbicidal Activity SETVI (growth controlling degree) ([3]; Rate 125 g a.i./ha): 0%; Pre-emergence Herbicidal Activity AMARE (growth controlling degree) ([4]; Rate 125 g a.i./ha): 30%; Pre-emergence Herbicidal Activity SIDSP (growth controlling degree) ([5]; Rate 125 g a.i./ha): 0%; Pre-emergence Herbicidal Activity ABUTH (growth controlling degree) ([6]; Rate 125 g a.i./ha): 0%; Pre-emergence Herbicidal Activity ORYSA (growth controlling degree) ([7]; Rate 125 g a.i./ha): 0%; Pre-emergence Herbicidal Activity TRZAX (growth controlling degree) ([8]; Rate 125 g a.i./ha): 0%; Pre-emergence Herbicidal Activity ZEAMX (growth controlling degree) ([9]; Rate 125 g a.i./ha): 0%; Pre-emergence Herbicidal Activity GLXMA (growth controlling degree) ([10]; Rate 125 g a.i./ha): 0%; growth controlling degree, AMARE [24]: 100%"
Cn1nc(-c2c(F)cc(Cl)c(OC(F)F)c2NS(C)(=O)=O)c(Cl)c1OC(F)F [Compound 1-84],0,50,20,70,0,0,10,0,20,0,10,70,80,10,0,20,50,60,90,30,Pre-emergence Herbicidal Activity ZEAMX (growth controlling degree) ([9]; Rate 63 g a.i./ha): 0%; Pre-emergence Herbicidal Activity GLXMA (growth controlling degree) ([10]; Rate 63 g a.i./ha): 0%; growth controlling degrees (%) SAGPY [22]: 95%

# From patent publication US20050245399A1, “Pyrazole derivatives as herbicidal compositions containing them” (ISHIHARA SANGYO KAISHA, LTD., priority 2004, published 2005)
